Data reported in paper PMC5711939, “The rumen microbiome: an underexplored resource for novel antimicrobial discovery” (NPJ Biofilms and Microbiomes, 2017).
Where two headings read alike, the source gives them in different places. Ends that are not written are not given here.

What was measured:
[1] = tested on: Ent. faecalis JH2-2; assay: microbe, parasite or virus in culture
Description: (§1) Peptides dissolved in sterile distilled water and comparator antibiotics dissolved in the appropriate solvents[38] were added to sterile U-bottom polypropylene 96-well microplates at desired concentrations.

[2] = tested on: K. pneumoniae; assay: microbe, parasite or virus in culture; settings: cation adjusted MHB, 18–24 h
Description: as §1

[3] = tested on: A. baumanii; assay: microbe, parasite or virus in culture
Description: as §1

[4] = tested on: C. coli
Description: as §1

[5] = tested on: E. coli K12; assay: SPOT peptide library screen (resazurin fluorescence); format: cell-based, Escherichia coli; set-up: unit not given here; settings: 75% reduction of fluorescence vs untreated controls; active IC75≤0.25, semi-active 0.25<IC75≤0.50, inactive IC75>0.5
From the text: The peptides in the created peptide library were synthesized based on the SPOT technique and pure peptides (≥95% purity) were synthesized on resin using solid phase Fmoc peptide chemistry.[16] The 135 peptides in the peptide library were screened for antimicrobial activity using both luminescent (Pseudomonas aeruginosa strain H1001)[34] and non-luminescent (epidemic methicillin resistant S. aureus EMRSA-15, Sal. typhimurium and E. coli K12) bacterial strains. Activity against non-luminescent bacteria strains was assessed by fluorescence readings (excitation/emission spectra of 560/590 nm) after the addition of resazurin dye (100 µm final concentration). The results from the screen were analysed using the MATLAB extension Gait-CAD as previously described.[35] Concentration values with a 75% reduction of luminescence or fluorescence (IC75) in relation to untreated controls were computed.

[6] = Peptide-lipid interaction, lipid monolayer (Langmuir balance); format: binding, Staphylococcus aureus; settings: initial surface pressure 30 ± 0.5 mN/m; compared to Lynronne-2
Description: Membrane permeabilsation was evaluated using propidium iodide assay as previously explained,[43] with CTAB as positive control. Peptide–lipid interaction was measured using reconstituted lipid monolayer.[44] Total lipid extract from overnight liquid cultures of MRSA USA300 was obtained by Folch extraction, resuspended in chloroform and stored at −20 °C under nitrogen conditions. Pure bacterial and eukaryotic lipids, POPG, cardiolipin, LTA, POPE and POPC (Avanti Polar Lipid USA) were reconstituted in chloroform at 1 mg/ml and stored at −20 °C under nitrogen. […] The variation of the surface pressure caused by peptide injection was then continuously monitored using a fully automated microtensiometer (µTROUGH SX, Kibron Inc., Helsinki, Finland) until reaching equilibrium (maximal surface pressure increase usually obtained after 15–25 min). Critical pressure of insertion of each peptide in the different lipids was also determined by changing the initial pressure of lipid monolayer (from 10 and 30 mN/m) and measuring the variation of pressure caused by the injection of peptide (at 1 µg/ml final concentration). All experiments were carried out in a controlled atmosphere at 20 °C ± 1 °C and data were analyzed using the Filmware 2.5 program (Kibron Inc., Helsinki, Finland). […]

[7] = tested on: MRSA strains; assay: Time kill kinetics; format: cell-based, Staphylococcus aureus; settings: 3× MIC, MHB
Description: Assessment of the bactericidal activity of peptides and comparator antibiotics was performed as previously described[39] using exponential-phase cultures of pathogens grown in MHB ([…]). Peptides were added at concentrations 3 times their MIC values. Experiments were performed in quadruplicates, and CFU/ml was calculated at different time points after over overnight incubation.

[8] = in vitro; settings: 25% serum
Description: The stability of Lynronne-1, Lynronne-2 and Lynronne-3 in the presence of serum was investigated by monitoring the concentrations of the remaining soluble peptides by reverse phase high-performance liquid chromatography (RP-HPLC), as described previously by Nguyen and colleagues.[26] Degradation of Lynronne-1, Lynronne-2 and Lynronne-3 in the presence of trypsin was adapted from a previously described method.[46] Briefly, trypsin (5 µl of 0.5 ng/ml) and 37.5 µl trypsin activation buffer (50 mM Tris, 2 mM CaCl2, pH 7.8-8) was added to 7.5 µl of 5 mg/ml Lynronne-1, Lynronne-2 and Lynronne-3 and incubated at 37 °C for different time points (0, 1, 3, and 24 h). An aliquot from each reaction mixture at 0 h was prepared to allow matrix-assisted laser desorption/ionization time-of-flight (MALDI-TOF) mass spectrometric verification of the synthetic peptides prior to incubation. Trypsin action buffer (5 µl) and peptides without trypsin was used as negative control. After the various incubation times, the reaction mixtures were acidified by addition of an equal volume (50 µl) of 10% (v/v) trifluroacetic acid (TFA) to stop further enzyme activity. Lynronne-1, Lynronne-2 and Lynronne-3 degradation products were evaporated to dryness and reconstituted in acetonitrile/water/TFA (40/59.5/0.5%, v/v/v). Samples (1 µl) were carefully placed onto a stainless steel (MALDI) target, covered with 1 µl of matrix (53 mM a-cyano-4-hydroxycinnamic acid in acetonitrile/water/TFA, 70/29.97/0.03%, v/v/v) solution before analysis by mass spectrometry.

[9] = tested on: HUVEC and HepG2 cells; settings: for total growth inhibition (TGI): HUVEC and HepG2 cells (cell line not given)
Description: Cytotoxic activity of the identified peptides was determined using HUVEC and HEPG2 cells as described previously.[41],[42] […] Significant responses were defined when observed cell growth was ≤50% and tube length was ≤70% using the proliferation and tube formation assays respectively. Permeabilization of eukaryotic membrane by Lynronne-1, Lynronne-2 and Lynronne-3 was also investigated using HepG2 cells as described previously.[43]

[10] = tested on: MRSA USA300 cells; assay: Transmission electron microscopy of treated cells; format: cell-based, Staphylococcus aureus; settings: 3× MIC for 1 h
From the text: Effects of AMPs on bacterial cell morphology was investigated using transmission electron microscopy as described by Huws et al.[49] […] Cells were post-fixed with 1% osmium tetroxide (w/v), stained with 2% (w/v) uranyl acetate and Reynold’s lead citrate and observed using a JEOL JEM1010 transmission electron microscope (JEOL Ltd, Tokyo, Japan) at 80 kV.

Row | Substance | MIC [1] [µg/mL] | MIC ([2]; strain ATCC 700603, SHV-18) [µg/mL] | MIC ([2]; strain NCTC 13442, OXA-48) [µg/mL] | MIC [3] [µg/mL] | MIC [4] [µg/mL] | IC75 values indicating activity classes, E. coli [5] | Insertion ability into MRSA lipid extract monolayer [6] | Reduction in viable count ([7]; within the first 10 min) [log10 CFU/ml] | remaining at 2 h [8] [%] | remaining at 6 h [8] [%] | total growth inhibition (TGI) [9] [µg/mL] | Changes in cell morphology (TEM) [10] | Reduction in viable count ([7]; in 30 min) [log10 CFU/ml] | Cytotoxic activity [9] | MIC ([2]; strain Q14-0095, KPC) [µg/mL] | MIC ([3]; strain 1560739339, OXA-23, cation adjusted MHB, 18–24 h) [µg/mL]
1 | LPRRNRWSKIWKKVVTVFS-NH2 [Lynronne-1] | 32 | 16 | 16 | 4 | 64 | 0.06 | higher insertion ability | > 8 | 48 | 15 | 67.1 |  |  |  |  | 
2 | HLRRINKLLTRIGLYRHAFG-NH2 [Lynronne-2] | 32 |  |  |  | >128 | 0.09 |  |  | ≥ 60 | 42 |  | very little morphology changes | > 3 | no cytotoxic activity |  | 
3 | NRFTARFRRTPWRLCLQFRQ-NH2 [Lynronne-3] | 64 | 32 | 32 |  | 128 | 0.16 | higher insertion ability | > 8 | ≥ 88 | 34 | 61.2 |  |  |  | 32 | 32
